# Measurements published in paper doi:10.1101/2022.11.11.516135v3 (biorxiv, 2024).
# Target: G3BP1-NTF2 (residues 1-139); NTF2-like domain of G3BP1 (Homo sapiens, UniProt Q13283)
# Assay: biochemical
# Assay type: binding
# Sequence of G3BP1-NTF2 (residues 1-139); NTF2-like domain of G3BP1 (Q13283 1-139): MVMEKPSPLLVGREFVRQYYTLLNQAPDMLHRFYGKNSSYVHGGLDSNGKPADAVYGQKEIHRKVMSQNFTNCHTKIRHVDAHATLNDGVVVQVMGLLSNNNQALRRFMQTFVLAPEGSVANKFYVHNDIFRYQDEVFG
row,Structure (SMILES),Kd
1,"COc1ccc(Br)cc1S(=O)(=O)NC(=O)/C=C/c1ccccc1Cc1ccc2ccccc2c1 [L-7, L-798106]",18.7 µM
2,"O=C1NCN(c2ccccc2)C12CCN(CCCC(c1ccc(F)cc1)c1ccc(F)cc1)CC2 [FLU, Fluspiriline]",71.4 µM
3,"CNC(=O)c1c(F)cccc1Nc1nc(Nc2cc3c(cc2OC)CCN3C(=O)CN(C)C)nc2[nH]ccc12 [GSK, GSK1838705A]",98 µM
4,"CC[C@H](NC(=O)c1c(C)c(-c2ccccc2)nc2ccccc12)c1ccccc1 [SB2, SB_222200]",66 µM
5,"CN1C[C@H](C(=O)N[C@]2(C)O[C@@]3(O)[C@@H]4CCCN4C(=O)[C@H](Cc4ccccc4)N3C2=O)C[C@@H]2c3cccc4[nH]cc(c34)C[C@H]21 [DHD, Dihydroergotamine]",54 µM
